Consider five compounds from patent publication US11952349B2, “Anti-cancer nuclear hormone receptor-targeting compounds” (Nuvation Bio Inc., priority 2019, dated 2024).

A word on the IC50: it is the concentration at which inhibition is half-maximal. The low end stands for greater potency in that assay, the high end for weaker potency in that assay.

Bounds are passed on as bounds.

The assay addresses T1, GR, cytosol from IM-9 cells (Homo sapiens, UniProt P04150).
T1 construct: endogenous in cells; host or cells: IM-9 cells (cytosol)
T1 sequence (P04150 1-777): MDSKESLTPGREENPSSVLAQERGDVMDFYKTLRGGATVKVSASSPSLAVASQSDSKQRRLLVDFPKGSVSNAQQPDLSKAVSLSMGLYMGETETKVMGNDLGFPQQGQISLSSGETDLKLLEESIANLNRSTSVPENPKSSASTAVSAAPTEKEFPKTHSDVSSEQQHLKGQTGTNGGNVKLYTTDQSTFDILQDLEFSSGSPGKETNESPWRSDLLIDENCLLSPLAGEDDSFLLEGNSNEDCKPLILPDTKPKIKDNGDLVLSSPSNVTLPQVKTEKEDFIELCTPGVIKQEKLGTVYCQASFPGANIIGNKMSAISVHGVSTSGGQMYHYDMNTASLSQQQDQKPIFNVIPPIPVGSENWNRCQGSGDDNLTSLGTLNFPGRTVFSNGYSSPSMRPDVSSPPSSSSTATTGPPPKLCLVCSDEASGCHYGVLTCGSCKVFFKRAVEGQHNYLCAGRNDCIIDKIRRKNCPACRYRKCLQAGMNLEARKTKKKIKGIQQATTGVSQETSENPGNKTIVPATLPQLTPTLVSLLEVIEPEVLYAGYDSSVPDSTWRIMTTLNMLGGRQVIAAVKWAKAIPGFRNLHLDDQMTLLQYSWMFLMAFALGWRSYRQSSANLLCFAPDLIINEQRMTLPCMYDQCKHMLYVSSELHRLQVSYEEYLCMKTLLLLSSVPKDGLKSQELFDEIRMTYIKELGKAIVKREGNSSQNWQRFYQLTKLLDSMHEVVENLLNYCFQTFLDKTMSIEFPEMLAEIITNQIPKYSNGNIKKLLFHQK
Nature of the assay: GR binding assay, 3H-Dexamethasone. The note with it: Table 8; 3H-Dexamethasone 1.5 nM. The method, then:
GR binding assay: To assess GR binding, test compound (top dose 1 μM, 4 fold serial dilution, 8 point dose response) and control (dexamethasone) were transferred to the assay plate. Cytosol from IM-9 cells was added to the plate, followed by addition of radiolabeled ^3H-Dexamethasone at a final concentration of 1.5 nM. The plate was sealed, and the reaction was incubated at 300 rpm at 4° C. for 24 hrs. Radioligand absorption buffer (10 mM Tris-HCl, pH 7.4; 1.5 mM EDTA; 1 mM DTT; 0.25% charcoal; 0.0025% dextran) was then added to the plate, mixed, and incubated at 4° C. for 15 minutes. The plate was then centrifuged at […] for 30 minutes at 4° C. The supernatant was transferred to the scint-tube and Tri-carb was used for scintillation counting. The data was analyzed using GraphPadPrism v5.0 and binding IC50 was determined as the concentration where 50% inhibition of radioligand binding was observed.
Consider `C[C@]12CC[C@H]3[C@@H](CCC4=CC(=O)CC[C@@]43C)[C@@H]1CC[C@@H]2C(=O)COCCCCCC(=O)N1CCN(C(=O)c2cc(Cc3n[nH]c(=O)c4ccccc34)ccc2F)CC1` [Compound 1386, 4-(3-(4-(6-(2-((8S,9S,10R,13S,14S,17S)-10,13-dimethyl-3-oxo-2,3,6,7,8,9,10,11,12,13,14,15,16,17-tetradecahydro-1H-cyclopenta[a]phenanthren-17-yl)-2-oxoethoxy)hexanoyl)piperazine-1-carbonyl)-4-fluorobenzyl)phthalazin-1(2H)-one], for which the IC50 lay in the range of 100 to 1000 nM.
The value for `CC#C[C@]1(O)CC[C@H]2[C@@H]3CCC4=CC(=O)CCC4=C3[C@@H](c3ccc(N(C)CCCCCC(=O)N4CCN(C(=O)c5cc(Cc6n[nH]c(=O)c7ccccc67)ccc5F)CC4)cc3)C[C@@]21C` [Compound 135, 4-(4-fluoro-3-(4-(6-((4-((8S,11R,13S,14S,17S)-17-hydroxy-13-methyl-3-oxo-17-(prop-1-ynyl)-2,3,6,7,8,11,12,13,14,15,16,17-dodecahydro-1H-cyclopenta[a]phenanthren-11-yl)phenyl)(methyl)amino)hexanoyl)piperazine-1-carbonyl)benzyl)phthalazin-1(2H)-one] was below 10 nM.
The value for `CC#C[C@]1(O)CC[C@H]2[C@@H]3CCC4=CC(=O)CCC4=C3[C@@H](c3ccc(N(C)CCCCCC(=O)NCCOCCOCC(=O)N4CCN(C(=O)c5cc(Cc6n[nH]c(=O)c7ccccc67)ccc5F)CC4)cc3)C[C@@]21C` [Compound 1429, N-(2-(2-(2-(4-(2-fluoro-5-((4-oxo-3,4-dihydrophthalazin-1-yl)methyl)benzoyl)piperazin-1-yl)-2-oxoethoxy)ethoxy)ethyl)-6-((4-((8S,11R,13S,14S,17S)-17-hydroxy-13-methyl-3-oxo-17-(prop-1-ynyl)-2,3,6,7,8,11,12,13,14,15,16,17-dodecahydro-1H-cyclopenta[a]phenanthren-11-yl)phenyl)(methyl)amino)hexanamide] was below 10 nM; that for `CC(=O)O[C@]1(C(C)=O)CC[C@H]2[C@@H]3CCC4=CC(=O)CCC4=C3[C@@H](c3ccc(N(C)CCCCCC(=O)N4CCN(C(=O)c5cc(Cc6n[nH]c(=O)c7ccccc67)ccc5F)CC4)cc3)C[C@@]21C` [Compound 1378, (8S,11R,13S,14S,17R)-17-acetyl-11-(4-((6-(4-(2-fluoro-5-((4-oxo-3,4-dihydrophthalazin-1-yl)methyl)benzoyl)piperazin-1-yl)-6-oxohexyl)(methyl)amino)phenyl)-13-methyl-3-oxo-2,3,6,7,8,11,12,13,14,15,16,17-dodecahydro-1H-cyclopenta[a]phenanthren-17-yl acetate] was below 10 nM; that for `CC(=O)O[C@]1(C(C)=O)CC[C@H]2[C@@H]3CCC4=CC(=O)CCC4=C3[C@@H](c3ccc(N(C)CCCCCC(=O)NCCOCCOCC(=O)N4CCN(C(=O)c5cc(Cc6n[nH]c(=O)c7ccccc67)ccc5F)CC4)cc3)C[C@@]21C` [Compound 1384, (8S,11R,13S,14S,17R)-17-acetyl-11-(4-((6-(2-(2-(2-(4-(2-fluoro-5-((4-oxo-3,4-dihydrophthalazin-1-yl)methyl)benzoyl)piperazin-1-yl)-2-oxoethoxy)ethoxy)ethylamino)-6-oxohexyl)(methyl)amino)phenyl)-13-methyl-3-oxo-2,3,6,7,8,11,12,13,14,15,16,17-dodecahydro-1H-cyclopenta[a]phenanthren-17-yl acetate] was below 10 nM.
